“And” between values parts separate entries of the source, which are not always exact repeats. Equal entries are not always repeated. Where two headings read alike, the source gives them in different places. Marks after values point to notes of the source that are not given here.
Assays:
[1] = Rectal PK study: IQB4012 gel; format: in vivo, pigtailed macaques; details: for median drug concentration (min-max), Rectal fluids / median drug concentration (min-max), Rectal tissues: N = 6; for levels in blood plasma: below the LLOQ, data not shown; for concentration at 2 h / concentration at 4 h / concentration at 24 h: female, pigtailed macaque, other: rectal
[2] = Release of drug from the gel into a liquid sink; format: in vitro ADME; details: IQB4012 gel, 1% (w/w) of each drug
[3] = in vivo
[4] = Vaginal PK study: IQB4012 gel; details: for concentration at 2 h / concentration at 4 h / concentration at 24 h: female, pigtailed macaque, other: vaginal
[5] = rectal gel application, 1 or 4 ml
[6] = vaginal fluid, distal, 1.5 ml gel
[7] = vaginal fluid, proximal, 0.5 ml
[8] = vaginal fluid, proximal, 1.5 ml gel
[9] = vaginal tissue, distal, 1.5 ml gel
[10] = vaginal tissue, medial, 1.5 ml gel
[11] = vaginal tissue, proximal, 0.5 ml
[12] = vaginal application, below the LLOQ, data not shown

SMILES: Cc1cc(C)cc(C(=O)c2c(C(C)C)c(=O)[nH]c(=O)n2CC2CC2)c1 [IQP-0528]
- median concentrations in rectal fluids ([1]; 1 ml gel rectally, 2 to 24 h): 10^3–10^5 ng/ml
- median drug concentration (min-max), Rectal fluids ([1]; 1 ml gel rectally, 2 h): 93,375 (2480–420,500) ng/ml
- median drug concentration (min-max), Rectal fluids ([1]; 1 ml gel rectally, 4 h): 31,000 (545–873,500) ng/ml
- median drug concentration (min-max), Rectal tissues ([1]; 1 ml gel rectally, 4 h): 9087 (BLLOQ^2-15,150) ng/g
- median drug concentration (min-max), Rectal fluids ([1]; 1 ml gel rectally, 24 h): 2975 (815–22,900) ng/ml
- median drug concentration (min-max), Rectal tissues ([1]; 1 ml gel rectally, 24 h): 127 ^* ng/g
- median drug concentration (min-max), Rectal fluids ([1]; 4 ml gel rectally, 2 h): 106,500 (54,600–769,000) ng/ml
- median drug concentration (min-max), Rectal fluids ([1]; 4 ml gel rectally, 4 h): 53,775 (9570–930,500) ng/ml
- median drug concentration (min-max), Rectal tissues ([1]; 4 ml gel rectally, 4 h): 1277 (BLLOQ-51,304) ng/g
- median drug concentration (min-max), Rectal fluids ([1]; 4 ml gel rectally, 24 h): 7065 (608–43,750) ng/ml
- median drug concentration (min-max), Rectal tissues ([1]; 4 ml gel rectally, 24 h): 566 (BLLOQ-2228) ng/g
- levels in blood plasma ([1]; rectal application): < 10 ng/mL
- rectal tissue samples with detectable concentrations ([1]; rectal application, both gel volumes (1 and 4 ml)): 10^2–10^3 ng/g
- concentrations sampled in rectal tissues [1, 5]: 10^1–10^3 ng/g
- release from the gel into a liquid sink (Franz Cell) [2]: 53.93 μg/cm ^3h
- levels in rectal tissue biopsies [3]: below LLOQ
- plasma concentrations [3]: < 10 ng/mL

SMILES: C[C@H](Cn1cnc2c(N)ncnc21)OCP(=O)(O)O [TFV, tenofovir]
- median drug concentration (min-max), Rectal tissues ([1]; 1 ml gel rectally, 24 h): 659 (BLLOQ-3586) ng/g
- median drug concentration (min-max), Rectal tissues ([1]; 4 ml gel rectally, 4 h): 393 (BLLOQ-11,464) ng/g
- concentration at 2 h ([1]; rectal fluid, 1 ml): 3230 ng/mL
- concentration at 4 h ([1]; rectal fluid, 1 ml): 705 ng/mL
- concentration at 24 h ([1]; rectal fluid, 1 ml): 132 ng/mL
- concentration at 2 h ([1]; rectal fluid, 4 ml): 5060 ng/mL
- concentration at 4 h ([1]; rectal fluid, 4 ml): 864 ng/mL
- concentration at 24 h ([1]; rectal fluid, 4 ml): 277 ng/mL
- concentration at 4 h ([1]; rectal tissue, 1 ml): 811 ng/g
- concentration at 24 h ([1]; rectal tissue, 1 ml): 659 ng/g
- concentration at 4 h ([1]; rectal tissue, 4 ml): 393 ng/g
- concentration at 24 h ([1]; rectal tissue, 4 ml): 1410 ng/g
- concentration at 2 h ([1]; pigtailed, rectal fluid, 1 ml): 3230 ng/mL
- concentration at 4 h ([1]; pigtailed, rectal fluid, 1 ml): 705 ng/mL
- concentration at 24 h ([1]; pigtailed, rectal fluid, 1 ml): 132 ng/mL
- concentration at 2 h ([1]; pigtailed, rectal fluid, 4 ml): 5060 ng/mL
- concentration at 4 h ([1]; pigtailed, rectal fluid, 4 ml): 864 ng/mL
- concentration at 24 h ([1]; pigtailed, rectal fluid, 4 ml): 277 ng/mL
- concentration at 4 h ([1]; pigtailed, rectal tissue, 1 ml): 811 ng/g
- concentration at 24 h ([1]; pigtailed, rectal tissue, 4 ml): 1410 ng/g
- levels in blood plasma ([1]; rectal application): < 10 ng/mL
- concentrations sampled in rectal tissues [1, 5]: 10^1–10^3 ng/g
- median concentrations in rectal fluids [1, 5]: 10^2–10^3 ng/ml
- release from the gel into a liquid sink (Franz Cell) [2]: 82.51 μg/cm ^3h
- median drug concentration (min—max), Vaginal fluids, Proximal ([4]; 0.5 ml gel vaginally, 2 h, N = 6): 158,146 (BLLOQ^2-3,025,157) ng/ml
- concentration at 2 h ([4]; rectal fluid, 0.5 ml): 80 ng/mL
- concentration at 4 h ([4]; rectal fluid, 0.5 ml): 69 ng/mL
- concentration at 24 h ([4]; rectal fluid, 0.5 ml): 53 ng/mL
- concentration at 2 h ([4]; rectal fluids, 1.5 ml gel): 138 ng/mL
- concentration at 4 h ([4]; rectal fluids, 1.5 ml gel): 156 ng/mL
- concentration at 24 h ([4]; rectal fluids, 1.5 ml gel): 127 ng/mL
- concentration at 2 h ([4]; vaginal fluid, distal, 0.5 ml): 232000 ng/mL
- concentration at 4 h ([4]; vaginal fluid, distal, 0.5 ml): 132000 ng/mL
- concentration at 24 h ([4]; vaginal fluid, distal, 0.5 ml): 18700 ng/mL
- concentration at 2 h ([4]; vaginal fluid, distal, 1.5 ml): 37200 ng/mL
- concentration at 4 h [4, 6]: 153000 ng/mL
- concentration at 24 h [4, 6]: 57000 ng/mL
- concentration at 4 h [4, 7]: 124000 ng/mL
- concentration at 24 h [4, 7]: 48900 ng/mL
- concentration at 2 h ([4]; vaginal fluid, proximal, 1.5 ml): 30400 ng/mL
- concentration at 4 h [4, 8]: 54300 ng/mL
- concentration at 24 h [4, 8]: 18000 ng/mL
- concentration at 4 h ([4]; vaginal tissue, distal, 0.5 ml): 13400 ng/g
- concentration at 24 h ([4]; vaginal tissue, distal, 0.5 ml): 5910 ng/g
- concentration at 4 h [4, 9]: 19200 ng/g
- concentration at 24 h [4, 9]: 5380 ng/g
- concentration at 4 h ([4]; vaginal tissue, medial, 0.5 ml): 8860 ng/g
- concentration at 24 h ([4]; vaginal tissue, medial, 0.5 ml): 3550 ng/g
- concentration at 4 h [4, 10]: 10200 ng/g
- concentration at 24 h [4, 10]: 12200 ng/g
- concentration at 4 h [4, 11]: 4490 ng/g
- concentration at 24 h [4, 11]: 16900 ng/g
- concentration at 4 h ([4]; vaginal tissue, proximal, 1.5 ml gel): 35100 ng/g
- median concentrations in rectal fluids ([4]; vaginal application of either volume (0.5 or 1.5 ml), over 24 h): ≤ 200 ng/mL
- concentrations in rectal biopsy tissues [4, 12]: < 1 ng/sample
- plasma concentrations [4, 12]: < 10 ng/mL

SMILES: C[C@@H](Cn1cnc2c(N)ncnc21)OCP(=O)(O)OP(=O)(O)OP(=O)(O)O [TFV-DP, TFV-diphosphate]
- median drug concentration (min-max), Rectal tissues ([1]; 1 ml gel rectally, 4 h): 176 ng/g and 176 (BLLOQ-207) ng/g
- median drug concentration (min-max), Rectal tissues ([1]; 1 ml gel rectally, 24 h): 70 ng/g and 70 (BLLOQ-128) ng/g
- median drug concentration (min-max), Rectal tissues ([1]; 4 ml gel rectally, 4 h): 47 ng/g and 47 (BLLOQ-480) ng/g
- median drug concentration (min-max), Rectal tissues ([1]; 4 ml gel rectally, 24 h): 81 ng/g and 81 (BLLOQ-131) ng/g
